Measurements: patent US11192852B2, “Pyrazolyl and pyrimidinyl tricyclic enones as antioxidant inflammation modulators” (REATA PHARMACEUTICALS, INC., priority 2010, dated 2021)

Test system: IFNγ-induced NO production in RAW264.7 mouse macrophages
Assay: Suppression of IFNγ-induced nitric oxide production (Griess reagent)
Format: cell-based
Conditions: 2 h pre-treatment (0-200 nM), then IFNγ 24 h, normalized to cell viability
Source text: Nitric Oxide Production and Cell Viability.

[1] = Mus musculus, RAW264.7, RAW264.7 cells

COc1cccc(-c2c3c(nn2C)[C@@]2(C)C=C(C#N)C(=O)[C@@H](C)[C@@H]2CC3)c1 [TX63664]
IC50 [1]: 8 nM

Cn1nnc(-c2c3c(nn2C)[C@@]2(C)C=C(C#N)C(=O)C(C)(C)[C@@H]2CC3)n1 [TX63665]
IC50 [1]: 14 nM

C[C@@H]1C(=O)C(C#N)=C[C@]2(C)c3nc(-c4ccccc4)n(C)c(=O)c3CC[C@@H]12 [TX63666]
IC50 [1]: 25 nM

Cn1nc2c(c1C(=O)c1ccccc1)CC[C@H]1C(C)(C)C(=O)C(C#N)=C[C@]21C [TX63667]
IC50 [1]: 155 nM

Cn1[nH]c2c(c1=O)CC[C@H]1C(C)(C)C(=O)C(C#N)=C[C@]21C [TX63676]
IC50 [1]: > 200 nM

C[C@@H]1C(=O)C(C#N)=C[C@]2(C)c3nn(C)c(-c4cnn(C)c4)c3CC[C@@H]12 [TX63690]
IC50 [1]: 11 nM

COc1c2c(nn1C)[C@@]1(C)C=C(C#N)C(=O)C(C)(C)[C@@H]1CC2 [TX63691]
IC50 [1]: 62 nM

CN1N=C2C(C)(CC[C@H]3C(C)(C)C(=O)C(C#N)=C[C@]23C)C1=O (stereo partly drawn) [TX63692]
IC50 [1]: > 200 nM

Cn1cnc(-c2c3c(nn2C)[C@@]2(C)C=C(C#N)C(=O)C(C)(C)[C@@H]2CC3)n1 [TX63714]
IC50 [1]: > 200 nM

COc1nc(OC)c2c(n1)[C@@]1(C)C=C(C#N)C(=O)[C@@H](C)[C@@H]1CC2 [TX63718]
IC50 (RAW264.7 cells): 6 nM

C[C@@H]1C(=O)C(C#N)=C[C@]2(C)c3nn(C)c(-c4nnn(C)n4)c3CC[C@@H]12 [TX63719]
IC50 [1]: 5.9 nM

C[C@@H]1C(=O)C(C#N)=C[C@]2(C)c3nn(C)c(-c4ccncc4)c3CC[C@@H]12 [TX63720]
IC50 [1]: 4.9 nM

C[C@@H]1C(=O)C(C#N)=C[C@]2(C)c3nn(C)c(-c4ccccc4F)c3CC[C@@H]12 [TX63721]
IC50 [1]: 7.8 nM

C[C@@H]1C(=O)C(C#N)=C[C@]2(C)c3nn(C)c(-c4cccnc4)c3CC[C@@H]12 [TX63722]
IC50 [1]: 8.3 nM

Cc1nc(-c2c3c(nn2C)[C@@]2(C)C=C(C#N)C(=O)C(C)(C)[C@@H]2CC3)no1 [TX63723]
IC50 [1]: 35 nM

C[C@@H]1C(=O)C(C#N)=C[C@]2(C)c3nn(C)c(C#N)c3CC[C@@H]12 [TX63725]
IC50 [1]: 24 nM

COc1ccccc1-c1nc(OC)c2c(n1)[C@@]1(C)C=C(C#N)C(=O)[C@@H](C)[C@@H]1CC2 [TX63727]
IC50 [1]: 11.5 nM

COc1nc(-c2ccncc2)nc2c1CC[C@H]1[C@H](C)C(=O)C(C#N)=C[C@]21C [TX63728]
IC50 [1]: 6.7 nM

Cn1nc2c(c1-c1nnn(Cc3ccccc3)n1)CC[C@H]1C(C)(C)C(=O)C(C#N)=C[C@]21C [TX63729]
IC50 [1]: 29 nM

CCOC(=O)c1nc(OC)c2c(n1)[C@@]1(C)C=C(C#N)C(=O)[C@@H](C)[C@@H]1CC2 [TX63730]
IC50 [1]: 16 nM

CCOc1nc(-c2ccccc2)nc2c1CC[C@H]1[C@H](C)C(=O)C(C#N)=C[C@]21C [TX63731]
IC50 [1]: 32 nM

CC(C)n1nnc(-c2c3c(nn2C)[C@@]2(C)C=C(C#N)C(=O)C(C)(C)[C@@H]2CC3)n1 [TX63734]
IC50 [1]: 43 nM

Cc1nnc(-c2c3c(nn2C)[C@@]2(C)C=C(C#N)C(=O)C(C)(C)[C@@H]2CC3)o1 [TX63735]
IC50 [1]: 15.6 nM

CCOc1nc(OCC)c2c(n1)[C@@]1(C)C=C(C#N)C(=O)[C@@H](C)[C@@H]1CC2 [TX63736]
IC50 [1]: 9.8 nM

C[C@@H]1C(=O)C(C#N)=C[C@]2(C)c3nn(C)c(-c4cncnc4)c3CC[C@@H]12 [TX63748]
IC50 [1]: 23 nM

COc1nc(-c2cncnc2)nc2c1CC[C@H]1[C@H](C)C(=O)C(C#N)=C[C@]21C [TX63757]
IC50 [1]: 4.3 nM

Cc1nc(N2CCOCC2)c2c(n1)[C@@]1(C)C=C(C#N)C(=O)[C@@H](C)[C@@H]1CC2 [TX63758]
IC50 [1]: 55 nM

Cc1noc(-c2c3c(nn2C)[C@@]2(C)C=C(C#N)C(=O)C(C)(C)[C@@H]2CC3)n1 [TX63760]
IC50 [1]: 6.2 nM

COc1nc(C2CC2)nc2c1CC[C@H]1[C@H](C)C(=O)C(C#N)=C[C@]21C [TX63761]
IC50 [1]: 8.9 nM

CCOc1nc(C)nc2c1CC[C@H]1[C@H](C)C(=O)C(C#N)=C[C@]21C [TX63773]
IC50 [1]: 6 nM

Cc1nc(N(C)C)c2c(n1)[C@@]1(C)C=C(C#N)C(=O)[C@@H](C)[C@@H]1CC2 [TX63774]
IC50 [1]: 26.7 nM

C[C@@H]1C(=O)C(C#N)=C[C@]2(C)c3nn(C)c(N4C(=O)NC(C)(C)C4=O)c3CC[C@@H]12 [TX63776]
IC50 [1]: > 200 nM

C[C@@H]1C(=O)C(C#N)=C[C@]2(C)c3nn(C)c(-c4ccccc4)c3CC[C@@H]12 [TX63791]
IC50 [1]: 2.3 nM

C[C@H]1C(=O)C(C#N)=C[C@@]2(C)c3nn(C)c(-c4ccccc4)c3CC[C@H]12 [TX63792]
IC50 [1]: 147 nM

COc1nc(OC)c2c(n1)[C@@]1(C)C=C(C#N)C(=O)[C@@H](C)[C@@H]1CC2 [TX63793]
IC50 (RAW264.7 cells): 2.5 nM

COc1nc(OC)c2c(n1)[C@]1(C)C=C(C#N)C(=O)[C@H](C)[C@H]1CC2 [TX63794]
IC50 [1]: 88.5 nM

Cn1nc2c(c1-c1ccccc1)CC[C@H]1C(C)(C)C(=O)C(C(F)(F)F)=C[C@]21C [TX63803]
IC50 [1]: 50 nM

Cn1nc2c(c1-c1ccccc1)C(=O)C[C@H]1C(C)(C)C(=O)C=C[C@]21C [TX63804]
IC50 [1]: > 200 nM

CCCCNc1nc(C)nc2c1CC[C@H]1[C@H](C)C(=O)C(C#N)=C[C@]21C [TX63827]
IC50 [1]: 59 nM

C[C@@H]1C(=O)C(C(F)(F)F)=C[C@]2(C)c3nn(C)c(-c4ccccc4)c3CC[C@@H]12 [TX63829]
IC50 [1]: 22 nM

Cn1nc2c(c1-c1ccccc1)CC[C@H]1C(C)(C)C(=O)[C@]3(C#N)O[C@@H]3[C@]21C [TX63834]
IC50 [1]: 105 nM

C[C@@H]1C(=O)C(C#N)=C[C@]2(C)c3n[nH]c(-c4ccccc4)c3CC[C@@H]12 [TX63836]
IC50 [1]: 6.1 nM

C[C@@H]1C(=O)[C@]2(C#N)O[C@@H]2[C@]2(C)c3nn(C)c(-c4ccccc4)c3CC[C@@H]12 [TX63848]
IC50 [1]: 9.5 nM

C[C@@H]1C(=O)C(C#N)=C[C@]2(C)c3nn(C)c(-c4cn(C)[n+]([O-])c4)c3CC[C@@H]12 [TX63849]
IC50 [1]: > 200 nM

CC(=O)n1nc2c(c1-c1ccccc1)CC[C@H]1[C@H](C)C(=O)C(C#N)=C[C@]21C [TX63850]
IC50 [1]: 8.9 nM

C[C@@H]1C(=O)C(C#N)=C[C@]2(C)c3nn(C)c(-c4ccccn4)c3CC[C@@H]12 [TX63851]
IC50 [1]: 5.1 nM

CNc1nc(C)nc2c1CC[C@H]1[C@H](C)C(=O)C(C#N)=C[C@]21C [TX63852]
IC50 [1]: 30 nM

COc1nc(C(C)(C)C)nc2c1CC[C@H]1[C@H](C)C(=O)C(C#N)=C[C@]21C [TX63853]
IC50 [1]: 31 nM

Cc1nnc(-c2c3c(nn2C)[C@@]2(C)C=C(C#N)C(=O)[C@@H](C)[C@@H]2CC3)o1 [TX63857]
IC50 [1]: 6.3 nM

CCOC(=O)n1nc2c(c1-c1ccccc1)CC[C@H]1[C@H](C)C(=O)C(C#N)=C[C@]21C [TX63871]
IC50 [1]: 7.5 nM

Cc1noc(-c2c3c(nn2C)[C@@]2(C)C=C(C#N)C(=O)[C@@H](C)[C@@H]2CC3)n1 [TX63872]
IC50 [1]: 4.6 nM

COc1ncnc2c1CC[C@H]1[C@H](C)C(=O)C(C#N)=C[C@]21C [TX63874]
IC50 [1]: 5.5 nM

CCOc1nc(C(C)(C)C)nc2c1CC[C@H]1[C@H](C)C(=O)C(C#N)=C[C@]21C [TX63900]
IC50 [1]: 40 nM

CC(C)n1cnc(-c2c3c(nn2C)[C@@]2(C)C=C(C#N)C(=O)C(C)(C)[C@@H]2CC3)n1 [TX63905]
IC50 [1]: 129 nM
